Source: patent US8653138B2, “Calcium salts of compounds as anti-inflammatory, immunomodulatory and anti-proliferatory agents” (4SC MG, priority 2010, dated 2014)
≈ marks a conversion by molar mass, not a printed value. Structures can show the parent of a compound that is named as a salt.

Tests used:
[1] = Aqueous solubility (OECD Guideline 105); type: physicochemical; conditions: water, 24 h at 23° C., HPLC-UV
Description: Aqueous solubilities of Vidofludimus free acid (2-(3-Fluoro-3′-methoxybiphenyl-4-ylcarbamoyl)-cyclopent-1-enecarboxylic acid), its potassium salt and its Calcium salt were examined. The principle of the method was based on the OECD Guideline for the testing of chemicals, 105 “Water Solubility”. 2 mg of the experimental compounds were weighed into Eppendorf vials of 1.5 ml. Subsequently, water was added to arrive at a concentration of 5 mg/ml. After preparation of the solubility samples they were incubated for 24 h at 23° C. under continuous shaking. Then the samples were centrifuged to separate the precipitate from the dissolved compound. The supernatants were transferred into labelled HPLC vials for quantification by HPLC-UV. Finally, these HPLC samples were analysed on the HPLC-UV System and their contents were calculated from the calibration curves, The concentration of compound in the supernatant equals its solubility in water. The following aqueous solubilities were found for Vidofludimus free acid and its potassium-and calcium salt: […]

[2] = Dynamic vapor sorption (DVS); type: physicochemical
From the text: DVS (SMS): Surface Measurement Systems Ltd. DVS-1 water vapour sorption analyzer. The sample is placed on a platinum sample pan and allowed to equilibrate at a given relative humidity (r.h.), usually 50% r.h. Then, a pre-defined humidity program was started with a scanning rate of 5% r.h. change per hour. First step: from 50% r.h. to 0% r.h, (in case of a possibly hydrate as starting material 50 to 95% r.h.), second step: from 0% to 95% r.h. (in case of a possibly hydrate as starting material 95 to 0% r.h.)

recombinant human DHODH = target: T1, recombinant human DHODH (Homo sapiens, UniProt Q02127); test: Inhibition assay of DHODH activity, human enzyme; type: biochemical; conditions: class symbol (head prints μM, key in nM)
T1 construct: provided by Prof; M. Löffler, Marburg, Germany (gift, not a commercial vendor)
T1 sequence (Q02127 whole entry): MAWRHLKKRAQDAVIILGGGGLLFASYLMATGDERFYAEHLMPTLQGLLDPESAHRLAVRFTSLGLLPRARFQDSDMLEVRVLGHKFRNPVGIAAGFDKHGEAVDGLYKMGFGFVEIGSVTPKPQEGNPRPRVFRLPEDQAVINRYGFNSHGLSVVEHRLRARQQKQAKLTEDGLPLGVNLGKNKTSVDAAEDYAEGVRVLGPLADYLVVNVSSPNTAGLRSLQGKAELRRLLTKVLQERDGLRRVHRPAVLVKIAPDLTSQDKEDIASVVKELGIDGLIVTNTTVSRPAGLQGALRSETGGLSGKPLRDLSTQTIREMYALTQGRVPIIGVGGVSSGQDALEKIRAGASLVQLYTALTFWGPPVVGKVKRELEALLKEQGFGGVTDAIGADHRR
Description: The standard assay mixture contained 50 μM decyclo ubichinone, 100 μM dihydroorotate, 60 μM 2,6-dichloroindophenol, as well as 20 mU DHODH. The volume activity of the recombinant enzyme used was 30 U/ml. Measurements were conducted in 50 mM TrisHCl (150 mM KCl, 0.1% Triton X-100, pH 8.0) at 30° C. in a final volume of 1 ml. The components were mixed, and the reaction was started by adding dihydroorotate. The course of reaction was followed by spectrophotometrically measuring the decrease in absorption at 600 nm for 2 min.
Inhibitory studies were conducted in a standard assay with additional variable amounts of inhibitor.
These investigations were carried out with recombinant human as well as with recombinant murine DHODH provided by Prof. M. Löffler, Marburg, Germany [M. Löffler, Chem. Biol. Interact.

| SMILES | Solubility [1] | IC50 (recombinant human DHODH) | other results |
| --- | --- | --- | --- |
| COc1cccc(-c2ccc(NC(=O)C3=C(C(=O)O)CCC3)c(F)c2)c1 [Compound 26, 2-((3-fluoro-3′-methoxy-[1,1′-biphenyl]-4-yl)carbamoyl)cyclopent-1-enecarboxylic acid] | – | – | Solubility ([1]; listed as Vidofludimus free acid): 9.5 µg/mL (≈ 26.7 µM) |
| COc1cccc(-c2ccc(NC(=O)C3=C(C(=O)O)CCC3)c(F)c2)c1 [Potassium salt] | 4700 µg/mL | – | – |
| COc1cccc(-c2ccc(NC(=O)C3=C(C(=O)O)CCC3)c(F)c2)c1 [Calcium salt, calcium salt of 2-(3-Fluoro-3′-methoxy-biphenyl-4-ylcarbamoyl)-cyclopent-1-enecarboxylic acid] | 16.2 µg/mL | – | water uptake ([2]; at 95% r.h. (not reversible)): 0.4%; water uptake ([2]; at about 85% r.h., after desolvation): 0.3% |
| O=C(O)C1=C(C(=O)Nc2cc(Br)c(OCc3cc(F)ccc3F)c(Br)c2)CCC1 [Compound 24] | – | < 0.8 µM | – |
| O=C(O)C1=C(C(=O)Nc2ccc(-c3ccccc3Cl)cc2)CSC1 [Compound 41, 4-((2′-chloro-[1,1′-biphenyl]-4-yl)carbamoyl)-2,5-dihydrothiophene-3-carboxylic acid] | – | < 0.8 µM | – |
| COc1ccccc1-c1ccc(OC(=O)C2=C(C(=O)O)CCC2)c(F)c1 [Compound 76] | – | < 0.8 µM | – |
